SMILES strings stand for the structures.

These results are taken from patent US10189838B2, “Aza-oxo-indoles for the treatment and prophylaxis of respiratory syncytial virus infection” (Hoffmann-La Roche Inc., priority 2013, dated 2019).

One experiment concerns RSV Long strain. Nature of the experiment: Viral cytopathic effect (CPE) assay, RSV Long strain. It is filed as cell-based, Respiratory Syncytial Virus. As to conditions: cell viability after 6 days (Cell Counting kit-8). The protocol: EC50: the concentration of a compound where 50% of its maximal protection effect against viral induced CPE is observed
LongStrain: an A subtype RSV strain obtained from ATCC with catalog number VR-26
To measure anti-RSV activity of compounds, 96-well plates are seeded with 6×10^3 cells per well in Dulbecco's modified Eagle's medium (DMEM) containing 10% fetal bovine serum (FBS). Cells are infected the next day with sufficient RSV Long strain (ATCC) to produce an approximately 80-90% cytopathic effect after 6 days, in the presence of serial half-log diluted compound in a total volume of […] per well. The viability of cells is assessed after 6 days using Cell Counting kit-8 (Dojindo Molecular Technologies). The absorbance at 450 nm and referenced at 630 nm is measured to determine 50% effective concentration (EC50)
For `N=C(N)NCCn1c(CN2C(=O)C3(CC3)c3ccncc32)cc2cc(Cl)ccc21` [Example 28], the midpoint of the response, the EC50, lay at 64 nM.

The experiment is the same for the next values; noted with them: human respiratory syncytial virus, 144 h, cell viability after 6 days (Cell Counting kit-8).
In the case of `CS(=O)(=O)CCCn1c(CN2C(=O)C3(CC3)c3ccncc32)cc2cc(Cl)ncc21` [Example 4-13, 1′-({5-Chloro-1-[3-(methylsulfonyl)propyl]-1H-pyrrolo[2,3-c]pyridin-2-yl}methyl)spiro[cyclopropane-1,3′-pyrrolo[2,3-c]pyridin]-2′(1′H)-one], the EC50 stood at 26 nM.

`CS(=O)(=O)CCn1c(CN2C(=O)C3(CC3)c3ccncc32)cc2c(Cl)cccc21` [Example 1-6, 1′-({4-Chloro-1-[2-(methylsulfonyl)ethyl]-1H-indol-2-yl}methyl)spiro[cyclopropane-1,3′-pyrrolo[2,3-c]pyridin]-2′(1′H)-one] showed a half-maximal effective concentration (EC50) of 1670 nM. Compared with the last compound, the EC50 is about 64-fold higher.

In turn, `CS(=N)(=O)CCn1c(CN2C(=O)C3(CC3)c3ccncc32)cc2cc(Cl)cnc21` (centres unmarked) [Example 14-4, 1′-({5-Chloro-1-[2-(S-methylsulfonimidoyl)ethyl]-1H-pyrrolo[2,3-b]pyridin-2-yl}methyl)spiro[cyclopropane-1,3′-pyrrolo[2,3-c]pyridin]-2′(1′H)-one] registered an EC50 of 172 nM.

`O=C1N(Cc2cc3nc(Cl)ccc3n2CCCS(=O)(=O)C2CC2)c2cnccc2C12CC2` [Example 4-6, 1′-({5-Chloro-1-[3-(cyclopropylsulfonyl)propyl]-1H-pyrrolo[3,2-b]pyridin-2-yl}methyl)spiro[cyclopropane-1,3′-pyrrolo[2,3-c]pyridin]-2′(1′H)-one] had an EC50 of 29 nM.

With `COC(=O)NCCCn1c(CN2C(=O)C3(CC3)c3ccncc32)cc2cc(Cl)ccc21` [Example 30, Methyl(3-{5-chloro-2-[(2′-oxospiro[cyclopropane-1,3′-pyrrolo[2,3-c]pyridin]-1′(2′H)-yl)methyl]-1H-indol-1-yl}propyl)carbamate], a half-maximal response (EC50) required 20 nM.

`CS(=O)(=O)CCn1c(CN2C(=O)C3(CC3)c3ccncc32)cc2cc(Cl)ccc21` [Example 3-3, 1′-({5-Chloro-1-[2-(methylsulfonyl)ethyl]-1H-indol-2-yl}methyl)spiro[cyclopropane-1,3′-pyrrolo[2,3-c]pyridin]-2′(1′H)-one] came in with an EC50 of 18 nM.

`CS(=O)(=O)CCn1c(CN2C(=O)C3(CC3)c3cccnc32)cc2cc(Cl)ccc21` [Example 2-5, 1′-({5-Chloro-1-[2-(methylsulfonyl)ethyl]-1H-indol-2-yl}methyl)spiro[cyclopropane-1,3′-pyrrolo[2,3-b]pyridin]-2′(1′H)-one] had an EC50 of 169 nM.

As for `CS(=O)(=O)CCCCn1c(CN2C(=O)C3(CC3)c3ccncc32)cc2cc(Cl)cnc21` [Example 4-16, 1′-({5-Chloro-1-[4-(methylsulfonyl)butyl]-1H-pyrrolo[2,3-b]pyridin-2-yl}methyl)spiro[cyclopropane-1,3′-pyrrolo[2,3-c]pyridin]-2′(1′H)-one], the EC50 came to 54.9 nM.

Compound `NC(=O)CCn1c(CN2C(=O)C3(CC3)c3ccncc32)cc2cc(Cl)ccc21` [Example 18-1, 3-{5-Chloro-2-[(2′-oxospiro[cyclopropane-1,3′-pyrrolo[2,3-c]pyridin]-1′(2′H)-yl)methyl]-1H-indol-1-yl}propanamide] had an EC50 of 17 nM. Compared with the last compound, the EC50 is about 3.2-fold lower.

Regarding `O=C(NCC(F)(F)F)OCCCn1c(CN2C(=O)C3(CC3)c3ccncc32)cc2cc(Cl)ccc21` [Example 31, 3-{5-Chloro-2-[(2′-oxospiro[cyclopropane-1,3′-pyrrolo[2,3-c]pyridin]-1′(2′H)-yl)methyl]-1H-indol-1-yl}propyl(2,2,2-trifluoroethyl)carbamate], the EC50 is 52 nM.

`CS(=O)(=O)CCn1c(CN2C(=O)C3(CC3)c3ccncc32)cc2cccc(Cl)c21` [Example 1-7, 1′-({7-Chloro-1-[2-(methylsulfonyl)ethyl]-1H-indol-2-yl}methyl)spiro[cyclopropane-1,3′-pyrrolo[2,3-c]pyridin]-2′(1′H)-one] had an EC50 of 164 nM.

As for `CS(=O)(=O)CCCn1c(CN2C(=O)C3(CC3)c3ccncc32)cc2nc(Cl)ccc21` [Example 4-15, 1′-({5-Chloro-1-[3-(methylsulfonyl)propyl]-1H-pyrrolo[3,2-b]pyridin-2-yl}methyl)spiro[cyclopropane-1,3′-pyrrolo[2,3-c]pyridin]-2′(1′H)-one], the EC50 came to 18 nM.

Turning to `CS(=O)(=O)CCCCn1c(CN2C(=O)C3(CC3)c3ccncc32)cc2nc(Cl)ccc21` [Example 4-5, 1′-({5-Chloro-1-[4-(methylsulfonyl)butyl]-1H-pyrrolo[3,2-b]pyridin-2-yl}methyl)spiro[cyclopropane-1,3′-pyrrolo[2,3-c]pyridin]-2′(1′H)-one], the EC50 is 22.1 nM. The EC50 values of the last two compounds are within 1.5-fold of each other.

The compound `CS(=O)(=O)CCn1c(CN2C(=O)C3(CC3)c3ccncc32)cc2cc(Cl)ncc21` [Example 5-2, 1′-({5-Chloro-1-[2-(methylsulfonyl)ethyl]-1H-pyrrolo[2,3-c]pyridin-2-yl}methyl)spiro[cyclopropane-1,3′-pyrrolo[2,3-c]pyridin]-2′(1′H)-one] yielded an EC50 of 269 nM. Compared with the last compound, the EC50 is about 12-fold higher.

Compound `CCS(=O)(=O)CCCn1c(CN2C(=O)C3(CC3)c3ccncc32)cc2cc(Cl)cnc21` [Example 23, 1′-({5-Chloro-1-[3-(ethylsulfonyl)propyl]-1H-pyrrolo[2,3-b]pyridin-2-yl}methyl)spiro[cyclopropane-1,3′-pyrrolo[2,3-c]pyridin]-2′(1′H)-one] had an EC50 of 63 nM.

Take `CS(=O)(=O)CCn1c(CN2C(=O)C3(CCC3)c3ccncc32)cc2cc(Cl)cnc21` [Example 2-4, 1′-({5-Chloro-1-[2-(methylsulfonyl)ethyl]-1H-pyrrolo[2,3-b]pyridin-2-yl}methyl)spiro[cyclobutane-1,3′-pyrrolo[2,3-c]pyridin]-2′(1′H)-one]: the EC50 stood at 28.8 nM.

Compound `CS(=O)(=O)CCn1c(CN2C(=O)C3(CC3)c3ccncc32)cc2cc(F)c(F)cc21` [Example 1-11, 1′-({5,6-Difluoro-1-[2-(methylsulfonyl)ethyl]-1H-indol-2-yl}methyl)spiro[cyclopropane-1,3′-pyrrolo[2,3-c]pyridin]-2′(1′H)-one] came in with an EC50 of 935 nM.

The compound `CS(=O)(=O)CCCn1c(CN2C(=O)C3(CC3)c3ccncc32)nc2cc(Cl)ccc21` [Example 36-1, 1′-({5-Chloro-1-[3-(methylsulfonyl)propyl]-1H-benzimidazol-2-yl}methyl)spiro[cyclopropane-1,3′-pyrrolo[2,3-c]pyridin]-2′(1′H)-one] displayed a 50% effective concentration (EC50) of 2 nM.

`CS(=O)(=O)CCn1c(CN2C(=O)C3(CC3)c3ccncc32)cc2cc(F)cc(F)c21` [Example 1-9, 1′-({5,7-Difluoro-1-[2-(methylsulfonyl)ethyl]-1H-indol-2-yl}methyl)spiro[cyclopropane-1,3′-pyrrolo[2,3-c]pyridin]-2′(1′H)-one] displayed an EC50 of 24 nM. Compared with the last compound, the EC50 is about 12-fold higher.

On to `O=C(O)CCn1c(CN2C(=O)C3(CC3)c3ccncc32)cc2cc(Cl)cc(F)c21` [Example 16-2, 3-{5-Chloro-7-fluoro-2-[(2′-oxospiro[cyclopropane-1,3′-pyrrolo[2,3-c]pyridin]-1′(2′H)-yl)methyl]-1H-indol-1-yl}propanoic acid], for which the EC50 was 300 nM.

`CCc1ccc2c(c1)cc(CN1C(=O)C3(CC3)c3ccncc31)n2CCS(C)(=O)=O` [Example 1-8, 1′-({5-Ethyl-1-[2-(methylsulfonyl)ethyl]-1H-indol-2-yl}methyl)spiro[cyclopropane-1,3′-pyrrolo[2,3-c]pyridin]-2′(1′H)-one] registered an EC50 of 220 nM.

For `CS(=O)(=O)CCc1c(CN2C(=O)C3(CC3)c3ccncc32)[nH]c2cc(Cl)ccc12` [Example 32-2, 1′-({6-Chloro-3-[2-(methylsulfonyl)ethyl]-1H-indol-2-yl}methyl)spiro[cyclopropane-1,3′-pyrrolo[2,3-c]pyridin]-2′(1′H)-one], the EC50 turned out to be 5 nM. Against the preceding compound, the EC50 is about 44-fold lower.

With `CS(=O)(=O)NCCCn1c(CN2C(=O)C3(CC3)c3ccncc32)cc2cc(Cl)ccc21` [Example 27-3, N-(3-{5-Chloro-2-[(2′-oxospiro[cyclopropane-1,3′-pyrrolo[2,3-c]pyridin]-1′(2′H)-yl)methyl]-1H-indol-1-yl}propyl)methanesulfonamide], the EC50 was 499 nM.

`CS(=O)(=O)CCn1c(CN2C(=O)C3(CC3)c3ccncc32)cc2cc(F)ccc21` [Example 1-4, 1′-({5-Fluoro-1-[2-(methylsulfonyl)ethyl]-1H-indol-2-yl}methyl)spiro[cyclopropane-1,3′-pyrrolo[2,3-c]pyridin]-2′(1′H)-one] displayed an EC50 of 189 nM.

Regarding `CC(=O)NS(=O)(=O)CCCn1c(CN2C(=O)C3(CC3)c3ccncc32)cc2cc(Cl)cnc21` [Example 26-2, N-[(3-{5-Chloro-2-[(2′-oxospiro[cyclopropane-1,3′-pyrrolo[2,3-c]pyridin]-1′(2′H)-yl)methyl]-1H-pyrrolo[2,3-b]pyridin-1-yl}propyl)sulfonyl]acetamide], the EC50 worked out at 1920 nM.

Consider `Cc1cnc2c(c1)cc(CN1C(=O)C3(CC3)c3ccncc31)n2CCS(C)(=O)=O` [Example 4-4, 1′-({5-Methyl-1-[2-(methylsulfonyl)ethyl]-1H-pyrrolo[2,3-b]pyridin-2-yl}methyl)spiro[cyclopropane-1,3′-pyrrolo[2,3-c]pyridin]-2′(1′H)-one], for which a half-maximal effect (EC50) was put at 64 nM.

Take `O=C1N(Cc2cc3cc(Cl)ccc3n2CCN2CCNCC2)c2cnccc2C12CC2` [Example 24-1, 1′-({5-Chloro-1-[2-(piperazin-1-yl)ethyl]-1H-indol-2-yl}methyl)spiro[cyclopropane-1,3′-pyrrolo[2,3-c]pyridin]-2′(1′H)-one]: the EC50 was determined as 68 nM.

On to `CS(=O)(=O)CCn1c(CN2C(=O)C3(CC3)c3ccncc32)nc2cc(Cl)cc(Cl)c21` [Example 37-2, 1′-({5,7-Dichloro-1-[2-(methylsulfonyl)ethyl]-1H-benzimidazol-2-yl}methyl)spiro[cyclopropane-1,3′-pyrrolo[2,3-c]pyridin]-2′(1′H)-one], for which the EC50 came to 16.8 nM.
